The CheMixHub viscosity set

Assay: xn = mol fraction of the nth substance listed

CCCCCC(=O)[O-].[NH3+]CCO + CCO
viscosity [mPa·s], 101 kPa
Conditions | x1 = 0.0135 | x2 = 0.794 | x2 = 0.8544 | x2 = 0.9 | x2 = 0.9391 | x2 = 0.9563 | x2 = 0.9719
293.15 K | 1.548 | 13.46 | 7.158 | 4.35 | 2.76 | 2.28 | 1.86
298.15 K | 1.428 | 11.38 | 6.24 | 3.87 | 2.472 | 2.046 | 1.74
303.15 K | 1.29 | 9.792 | 5.43 | 3.39 | 2.22 | 1.848 | 1.512

CCCCCCCCCCO + CCO
viscosity [mPa·s], 101 kPa
Conditions | 298.15 K | 308.15 K | 318.15 K
x2 = 0.05 | 10.42 | 7.3 | 4.847
x2 = 0.1 | 9.841 | 7.003 | 4.436
x2 = 0.15 | 9.249 | 6.644 | 4.102
x2 = 0.2 | 8.648 | 6.24 | 3.83
x2 = 0.25 | 8.044 | 5.809 | 3.604
x2 = 0.3 | 7.442 | 5.364 | 3.409
x2 = 0.35 | 6.845 | 4.919 | 3.236
x2 = 0.4 | 6.259 | 4.484 | 3.073
x2 = 0.45 | 5.687 | 4.065 | 2.912
x2 = 0.5 | 5.133 | 3.671 | 2.747
x2 = 0.55 | 4.6 | 3.304 | 2.575
x2 = 0.6 | 4.09 | 2.967 | 2.391
x2 = 0.65 | 3.606 | 2.659 | 2.195
x2 = 0.7 | 3.15 | 2.378 | 1.989
x2 = 0.75 | 2.723 | 2.119 | 1.775
x2 = 0.8 | 2.326 | 1.876 | 1.558
x2 = 0.85 | 1.961 | 1.641 | 1.344
x2 = 0.9 | 1.627 | 1.402 | 1.141
x2 = 0.95 | 1.325 | 1.146 | 0.9601

NC(N)=O + CCO
viscosity [mPa·s], 101 kPa
Conditions | 293.15 K | 298.15 K | 303.15 K | 308.15 K | 313.15 K | 318.15 K | 323.15 K
x1 = 0.02956 | 1.328 | 1.204 | 1.095 | 0.999 | 0.914 | 0.839 | 0.772
x1 = 0.03764 | 1.386 | 1.251 | 1.134 | 1.031 | 0.94 | 0.859 | 0.788
x1 = 0.04782 | 1.476 | 1.329 | 1.202 | 1.09 | 0.991 | 0.904 | 0.828

COCCOCCO + CCOC(=O)OCC
298.15 K, 101.33 kPa
Conditions | viscosity [mPa·s]
x1 = 0.0177 | 0.765
x1 = 0.0409 | 0.784
x1 = 0.0525 | 0.794
x1 = 0.0688 | 0.809
x1 = 0.0808 | 0.819
x1 = 0.0974 | 0.834
x1 = 0.1182 | 0.856
x1 = 0.1376 | 0.878
x1 = 0.1665 | 0.911
x1 = 0.1973 | 0.949
x1 = 0.2247 | 0.98
x1 = 0.26 | 0.984
x1 = 0.3011 | 1.095
x1 = 0.3362 | 1.148
x1 = 0.4104 | 1.282
x1 = 0.438 | 1.337
x1 = 0.4644 | 1.394
x1 = 0.4835 | 1.436
x1 = 0.5151 | 1.511
x1 = 0.5529 | 1.61
x1 = 0.5929 | 1.721
x1 = 0.6445 | 1.874
x1 = 0.6774 | 1.978
x1 = 0.7326 | 2.167
x1 = 0.7642 | 2.295
x1 = 0.8034 | 2.456
x1 = 0.8312 | 2.576
x1 = 0.861 | 2.709
x1 = 0.8942 | 2.87
x1 = 0.9328 | 3.065
x1 = 0.9487 | 3.15
x1 = 0.9554 | 3.189
x1 = 0.9613 | 3.221

Cc1ccc(Cl)cc1 + CCOC(=O)c1ccccc1
viscosity [mPa·s], 101 kPa
Conditions | 303.15 K | 313.15 K
x2 = 0.0536 | 0.745 | 0.65
x2 = 0.1068 | 0.729 | 0.632
x2 = 0.1858 | 0.73 | 0.629
x2 = 0.2507 | 0.751 | 0.644
x2 = 0.3392 | 0.806 | 0.686
x2 = 0.4157 | 0.876 | 0.739
x2 = 0.4913 | 0.959 | 0.801
x2 = 0.592 | 1.092 | 0.904
x2 = 0.6657 | 1.201 | 0.991
x2 = 0.762 | 1.359 | 1.109
x2 = 0.8333 | 1.484 | 1.206
x2 = 0.907 | – | 1.315
x2 = 0.9071 | 1.623 | –
x2 = 0.9524 | 1.713 | 1.385
